Test results taken from ChEMBL document CHEMBL3860107, “Discovery of [5-Amino-1-(2-methyl-3H-benzimidazol-5-yl)pyrazol-4-yl]-(1H-indol-2-yl)methanone (CH5183284/Debio 1347), An Orally Available and Selective Fibroblast Growth Factor Receptor (FGFR) Inhibitor” (J Med Chem, 2016).
Converted amounts (≈) assume the structure as drawn. The source made the active and inactive calls. No cut-off for these calls is given here.

Assays:
[1] = Antiproliferative activity against human SNU16 cells incubated for 4 days by CCK8 assay; type: functional, cell-based; settings: SNU-16, 96 h
[2] = Solubility in FaSSIF at pH 6.5 irradiated ultrasonically for 10 mins and shaken for 2 hrs followed by centrifugation for 10 mins by HPLC-UV method; type: physicochemical
[3] = Intrinsic clearance in human liver microsomes at 1 uM in presence of NADPH incubated for 30 mins by LC/MS method; type: ADME; settings: read-out: CLH
cells = settings: Homo sapiens, HCT-116, 96 h
Description: Antiproliferative activity against human HCT116 cells incubated for 4 days by CCK8 assay

[4] = biological target: Vascular endothelial growth factor receptor 2 (Homo sapiens, UniProt P35968); assay: Inhibition of human KDR by time-resolved fluorescence or time-resolved fluorescence assay
Vascular endothelial growth factor receptor 2, sequence (P35968 whole entry): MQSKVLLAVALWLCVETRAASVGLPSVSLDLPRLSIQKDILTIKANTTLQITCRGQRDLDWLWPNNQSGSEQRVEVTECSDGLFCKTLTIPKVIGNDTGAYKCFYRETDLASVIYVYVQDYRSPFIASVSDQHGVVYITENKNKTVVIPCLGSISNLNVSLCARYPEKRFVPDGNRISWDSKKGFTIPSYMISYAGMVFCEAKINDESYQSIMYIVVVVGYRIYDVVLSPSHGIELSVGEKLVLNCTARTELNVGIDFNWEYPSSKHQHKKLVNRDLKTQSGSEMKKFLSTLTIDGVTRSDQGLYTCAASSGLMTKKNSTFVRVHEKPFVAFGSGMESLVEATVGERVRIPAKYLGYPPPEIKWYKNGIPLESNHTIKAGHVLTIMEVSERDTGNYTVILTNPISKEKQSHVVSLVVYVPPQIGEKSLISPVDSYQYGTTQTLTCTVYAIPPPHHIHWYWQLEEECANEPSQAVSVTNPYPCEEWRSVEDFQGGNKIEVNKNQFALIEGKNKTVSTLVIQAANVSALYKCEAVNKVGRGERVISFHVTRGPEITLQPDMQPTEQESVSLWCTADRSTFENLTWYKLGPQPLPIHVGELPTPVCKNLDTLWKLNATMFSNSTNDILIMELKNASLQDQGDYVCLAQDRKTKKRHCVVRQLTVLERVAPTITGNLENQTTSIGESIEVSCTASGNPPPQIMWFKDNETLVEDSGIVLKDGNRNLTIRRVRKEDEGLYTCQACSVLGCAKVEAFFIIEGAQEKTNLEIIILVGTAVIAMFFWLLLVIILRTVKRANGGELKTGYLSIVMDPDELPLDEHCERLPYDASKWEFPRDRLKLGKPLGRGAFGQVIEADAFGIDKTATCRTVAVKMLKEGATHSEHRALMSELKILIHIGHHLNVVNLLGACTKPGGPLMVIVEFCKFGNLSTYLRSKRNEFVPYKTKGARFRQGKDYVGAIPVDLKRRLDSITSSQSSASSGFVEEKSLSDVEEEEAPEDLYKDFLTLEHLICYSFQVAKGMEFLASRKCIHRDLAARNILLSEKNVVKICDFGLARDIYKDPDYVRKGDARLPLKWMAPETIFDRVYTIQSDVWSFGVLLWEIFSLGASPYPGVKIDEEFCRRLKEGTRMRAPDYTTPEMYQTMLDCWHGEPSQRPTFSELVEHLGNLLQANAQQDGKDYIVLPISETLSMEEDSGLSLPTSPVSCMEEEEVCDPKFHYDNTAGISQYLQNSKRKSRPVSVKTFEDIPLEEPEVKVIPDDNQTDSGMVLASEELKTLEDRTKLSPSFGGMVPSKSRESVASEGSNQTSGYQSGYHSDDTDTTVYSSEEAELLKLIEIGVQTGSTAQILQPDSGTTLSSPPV

[5] = Antitumor activity against human SNU16 cells xenografted in CAnN.Cg-Foxn1 (nu)/CrlCrlj nu/nu BALB nu/nu mouse assessed as tumor growth inhibition at 30 mg/kg, po qd for 11 days; type: functional; settings: SNU-16, po, 264 h, read-out: TGI
[6] = Antitumor activity against human SNU16 cells xenografted in CAnN.Cg-Foxn1 (nu)/CrlCrlj nu/nu BALB nu/nu mouse assessed as tumor growth inhibition at 100 mg/kg, po qd for 11 days; type: functional; settings: SNU-16, po, 264 h, read-out: TGI
SNU-16 = settings: Homo sapiens
KG-1 = settings: Homo sapiens
Description: Antitumor activity against FGFR1OP-FGFR1 fusion protein expressing human KG1 cells xenografted in mouse

MFE-280 = settings: Homo sapiens
Description: Antitumor activity against FGFR2 S252W mutant expressing human MFE280 cells xenografted in mouse

UM-UC-14 = settings: Homo sapiens
Description: Antitumor activity against FGFR3 S249C mutant expressing human UM-UC-14 cells xenografted in mouse

RT112/84 = settings: Homo sapiens
Description: Antitumor activity against FGFR3-TACC3 mutant expressing human RT112/84 cells xenografted in mouse

[7] = biological target: Proto-oncogene tyrosine-protein kinase Src (Homo sapiens, UniProt P12931); assay: Inhibition of human SRC by time-resolved fluorescence or time-resolved fluorescence assay
Proto-oncogene tyrosine-protein kinase Src, sequence (P12931 2-536 limits assumed): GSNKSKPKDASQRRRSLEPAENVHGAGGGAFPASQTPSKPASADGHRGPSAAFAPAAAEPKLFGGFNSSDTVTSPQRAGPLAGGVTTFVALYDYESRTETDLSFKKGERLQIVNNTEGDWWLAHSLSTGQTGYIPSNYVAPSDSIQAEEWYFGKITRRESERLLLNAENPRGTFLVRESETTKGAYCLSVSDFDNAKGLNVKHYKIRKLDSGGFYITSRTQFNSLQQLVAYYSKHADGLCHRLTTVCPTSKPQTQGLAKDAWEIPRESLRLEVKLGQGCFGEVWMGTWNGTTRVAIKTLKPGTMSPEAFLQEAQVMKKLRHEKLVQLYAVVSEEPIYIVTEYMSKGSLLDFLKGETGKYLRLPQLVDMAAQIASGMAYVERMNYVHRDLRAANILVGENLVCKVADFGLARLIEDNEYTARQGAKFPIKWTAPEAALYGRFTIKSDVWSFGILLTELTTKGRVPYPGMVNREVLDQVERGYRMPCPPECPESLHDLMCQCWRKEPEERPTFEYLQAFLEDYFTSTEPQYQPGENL

[8] = biological target: Voltage-gated inwardly rectifying potassium channel KCNH2 (Homo sapiens, UniProt Q12809); assay: Inhibition of human ERG expressed in CHO cells assessed as reduction in channel currents at -80 mV holding potential by automated whole-cell patch clamp method
Voltage-gated inwardly rectifying potassium channel KCNH2, sequence (Q12809 whole entry): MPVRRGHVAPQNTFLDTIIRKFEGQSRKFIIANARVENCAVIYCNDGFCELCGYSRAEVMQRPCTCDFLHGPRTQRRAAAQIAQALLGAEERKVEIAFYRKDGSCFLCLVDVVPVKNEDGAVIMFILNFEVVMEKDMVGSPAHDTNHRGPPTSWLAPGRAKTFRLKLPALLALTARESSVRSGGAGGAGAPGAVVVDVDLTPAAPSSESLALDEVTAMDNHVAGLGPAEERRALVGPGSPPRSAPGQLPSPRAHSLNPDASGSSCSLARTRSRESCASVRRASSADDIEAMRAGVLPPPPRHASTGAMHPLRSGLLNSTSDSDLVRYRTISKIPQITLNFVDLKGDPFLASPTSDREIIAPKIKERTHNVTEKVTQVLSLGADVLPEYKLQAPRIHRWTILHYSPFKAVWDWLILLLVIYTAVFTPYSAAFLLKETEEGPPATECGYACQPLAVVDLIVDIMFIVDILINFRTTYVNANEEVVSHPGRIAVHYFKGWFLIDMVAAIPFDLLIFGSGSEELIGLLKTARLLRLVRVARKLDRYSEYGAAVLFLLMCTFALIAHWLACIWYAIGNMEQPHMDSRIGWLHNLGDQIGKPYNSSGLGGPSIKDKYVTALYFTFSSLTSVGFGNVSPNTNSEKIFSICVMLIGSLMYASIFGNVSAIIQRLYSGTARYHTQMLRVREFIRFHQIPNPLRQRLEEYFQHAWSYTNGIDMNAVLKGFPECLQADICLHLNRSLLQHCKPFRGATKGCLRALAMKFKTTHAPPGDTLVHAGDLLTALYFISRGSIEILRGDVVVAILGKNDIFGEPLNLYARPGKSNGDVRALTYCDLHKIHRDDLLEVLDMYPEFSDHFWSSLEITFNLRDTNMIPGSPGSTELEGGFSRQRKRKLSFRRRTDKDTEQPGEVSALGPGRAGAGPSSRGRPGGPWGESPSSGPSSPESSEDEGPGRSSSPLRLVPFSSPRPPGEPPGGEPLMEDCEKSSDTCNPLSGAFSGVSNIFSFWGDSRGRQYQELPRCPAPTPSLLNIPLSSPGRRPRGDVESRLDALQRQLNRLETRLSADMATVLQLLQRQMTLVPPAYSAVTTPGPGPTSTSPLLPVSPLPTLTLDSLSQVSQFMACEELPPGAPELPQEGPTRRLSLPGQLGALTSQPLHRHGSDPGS

hERG (KCNH2) = hERG (KCNH2) (Homo sapiens, UniProt Q12809); assay: Inhibition of human ERG expressed in CHO cells assessed as reduction in channel currents at 10 uM at -80 mV holding potential by automated whole-cell patch clamp method; settings: CHO cells that express hERG
hERG (KCNH2), sequence (Q12809 whole entry): as above

[9] = Oral bioavailability cynomolgus monkey at 1 mg/kg by LC-MS/MS method; type: ADME, organism-based, Macaca fascicularis; settings: in vivo
[10] = biological target: Fibroblast growth factor receptor 4 (Homo sapiens, UniProt P22455); assay: Inhibition of human FGFR4 by time-resolved fluorescence or time-resolved fluorescence assay
Fibroblast growth factor receptor 4, sequence (P22455 whole entry, the tested form may be a part): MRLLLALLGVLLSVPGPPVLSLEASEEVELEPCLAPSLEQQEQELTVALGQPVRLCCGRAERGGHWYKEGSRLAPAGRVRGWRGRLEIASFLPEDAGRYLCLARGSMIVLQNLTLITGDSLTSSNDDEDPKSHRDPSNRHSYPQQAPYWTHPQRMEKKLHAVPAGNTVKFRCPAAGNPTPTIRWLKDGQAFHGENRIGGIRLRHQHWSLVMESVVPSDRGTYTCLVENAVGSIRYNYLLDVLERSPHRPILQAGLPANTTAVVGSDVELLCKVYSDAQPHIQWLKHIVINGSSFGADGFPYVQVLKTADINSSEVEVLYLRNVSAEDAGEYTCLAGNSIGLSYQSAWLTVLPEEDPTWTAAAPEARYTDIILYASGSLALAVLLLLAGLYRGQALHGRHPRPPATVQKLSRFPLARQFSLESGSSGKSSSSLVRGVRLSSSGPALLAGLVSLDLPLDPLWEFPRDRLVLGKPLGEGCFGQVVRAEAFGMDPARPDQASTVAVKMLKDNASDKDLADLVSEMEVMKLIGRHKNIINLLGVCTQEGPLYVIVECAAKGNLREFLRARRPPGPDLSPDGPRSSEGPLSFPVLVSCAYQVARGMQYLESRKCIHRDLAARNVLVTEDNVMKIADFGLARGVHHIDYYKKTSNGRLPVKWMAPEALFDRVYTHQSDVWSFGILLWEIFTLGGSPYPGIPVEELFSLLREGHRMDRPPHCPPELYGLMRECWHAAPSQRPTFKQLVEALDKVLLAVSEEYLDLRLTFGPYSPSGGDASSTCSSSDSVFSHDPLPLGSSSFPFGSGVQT

[11] = Cardiotoxicity in Langendorff's isolated guinea pig heart perfusion model in assessed as induction of QTc prolongation; type: toxicity, tissue-based, Cavia porcellus
Rattus norvegicus [12] = organism: Rattus norvegicus; assay: Cardiotoxicity in rat assessed as effect on blood pressure; type: toxicity, organism-based
[13] = Cardiotoxicity in monkey assessed as effect on blood pressure; type: toxicity, Macaca mulatta; settings: rhesus monkey
Rattus norvegicus [14] = assay: Cardiotoxicity in telemetry instrumented rat assessed as effect on blood pressure at 30 mg/kg; type: toxicity, organism-based; settings: in vivo
[15] = AUC in rat at 30 mg/kg; type: ADME, organism-based; settings: in vivo
Mus musculus = assay: Toxicity in human SNU16 cells xenografted CAnN.Cg-Foxn1 (nu)/CrlCrlj nu/nu BALB nu/nu mouse assessed as induction of body weight loss at 30 and 100 mg/kg, po qd for 11 days; type: organism-based, SNU-16; settings: in vivo, 264 h
[16] = Permeability from apical to basolateral side in human Caco2 cells at 10 uM incubated for 120 mins by LC-MS/MS method; type: ADME, cell-based; settings: Caco-2, read-out: permeability
[17] = biological target: Fibroblast growth factor receptor 1 (Homo sapiens, UniProt P11362)
Description: Inhibition of human FGFR1 by time-resolved fluorescence or time-resolved fluorescence assay

[18] = biological target: Fibroblast growth factor receptor 3 (Homo sapiens, UniProt P22607)
Description: Inhibition of human FGFR3 by time-resolved fluorescence or time-resolved fluorescence assay

## Nc1c(C(=O)c2cc3ccccc3[nH]2)cnn1-c1ccc2[nH]ccc2c1
[1]
  IC50: 0.19 µM
[2]
  solubility at 2 h: 0.004 mg/mL (≈ 11.7 µM)
[3]
  microsomal CLint at 1 µM: 4.4 µL/min/mg
cells
  IC50: 0.47 µM

## CCc1nc2cc(-n3ncc(C(=O)c4cc5ccccc5[nH]4)c3N)ccc2[nH]1
[4]
  IC50: 1.7 µM
[1]
  IC50: 0.077 µM
[2]
  solubility at 2 h: 0.042 mg/mL (≈ 113 µM)
[3]
  microsomal CLint at 1 µM: 23 µL/min/mg
cells
  IC50: 1.5 µM

## Nc1c(C(=O)c2cc3cc(CN4CCOCC4)ccc3[nH]2)cnn1-c1cc(O)ccc1Cl
[4]
  IC50: 0.0024 µM
[1]
  IC50: 0.55 µM
[2]
  solubility at 2 h: 0.04 mg/mL (≈ 88.5 µM)
[3]
  microsomal CLint at 1 µM: 20 µL/min/mg
cells
  IC50: 3.6 µM

## Cc1nc2ccc(-n3ncc(C(=O)c4cc5ccccc5[nH]4)c3N)cc2[nH]1 [FGFR INHIBITOR DEBIO 1347]
[1]
  IC50: 0.017 µM
[5]
  inhibition in vivo at 30 mg/kg: 106%
[6]
  inhibition in vivo at 100 mg/kg: 147%
SNU-16
  AUC: 26000 ng·h/mL
KG-1
  TGI: Active
MFE-280
  TGI: Active
UM-UC-14
  TGI: Active
RT112/84
  TGI: Active
cells
  IC50: 5.9 µM

## Cc1nc2cc(-n3ncc(C(=O)c4cc5ccc(-c6ccccc6)cc5[nH]4)c3N)ccc2[nH]1
[4]
  IC50: 3.4 µM
[7]
  IC50: > 50 µM
[1]
  IC50: 0.084 µM
[3]
  microsomal CLint at 1 µM: 3.2 µL/min/mg
[8]
  IC50: > 10 µM
hERG (KCNH2)
  inhibition at 10 µM: 15%
[9]
  bioavailability: 3%

## Cc1nc2cc(-n3ncc(C(=O)c4cc5ccc(S(C)(=O)=O)cc5[nH]4)c3N)ccc2[nH]1
[4]
  IC50: 1 µM
[1]
  IC50: 0.082 µM
[3]
  microsomal CLint at 1 µM: 5.4 µL/min/mg
cells
  IC50: 37 µM

## Cc1nc2cc(-n3ncc(C(=O)c4cc5ccc(CN6CCOCC6)cc5[nH]4)c3N)ccc2[nH]1
[4]
  IC50: 0.12 µM
[1]
  IC50: 0.0026 µM
[3]
  microsomal CLint at 1 µM: 9.6 µL/min/mg
[8]
  IC50: > 10 µM
hERG (KCNH2)
  inhibition at 10 µM: 15%
[9]
  bioavailability: 0%

## Cc1nc2cc(-n3ncc(C(=O)c4cc5ccccc5[nH]4)c3N)ccc2[nH]1 [FGFR INHIBITOR DEBIO 1347]
[10]
  IC50: 0.29 µM
[4]
  IC50: 2.1 µM
[7]
  IC50: 5.9 µM
[2]
  solubility at 2 h: 0.029 mg/mL (≈ 81.4 µM)
[3]
  microsomal CLint at 1 µM: 13 µL/min/mg
[8]
  IC50: 6.9 µM
hERG (KCNH2)
  inhibition at 10 µM: 69%
[9]
  bioavailability: 30%
[11]
  Activity: Non-Toxic
Rattus norvegicus [12]
  Activity: Non-Toxic
[13]
  Activity: Non-Toxic
Rattus norvegicus [14]
  Activity: Non-Toxic
[15]
  AUC: 102 µg·h/mL
Mus musculus
  Activity: Non-Toxic

## Cc1cccc(C(=O)c2cnn(-c3cc(O)ccc3Cl)c2N)c1
[4]
  IC50: 2.9 µM
[1]
  IC50: 15 µM
cells
  IC50: > 20 µM

## Cc1cc2cc(-n3ncc(C(=O)c4cc5ccccc5[nH]4)c3N)ccc2[nH]1
[1]
  IC50: 0.053 µM
[2]
  solubility at 2 h: 0.01 mg/mL (≈ 28.1 µM)
[3]
  microsomal CLint at 1 µM: 10 µL/min/mg
cells
  IC50: 5.3 µM

## Cc1nc2cc(-n3ncc(C(=O)c4cc5ccc(Br)cc5[nH]4)c3N)ccc2[nH]1
[4]
  IC50: 0.29 µM
[7]
  IC50: > 50 µM
[1]
  IC50: 0.052 µM
[3]
  microsomal CLint at 1 µM: 4.2 µL/min/mg
[16]
  Papp A→B at 2 h, 10 µM: 22 nm/s
[8]
  IC50: > 10 µM
hERG (KCNH2)
  inhibition at 10 µM: 31%
[9]
  bioavailability: 20%
cells
  IC50: 11 µM

## Nc1c(C(=O)c2cc3ccccc3[nH]2)cnn1-c1ccc2nc[nH]c2c1
[4]
  IC50: 0.34 µM
[1]
  IC50: 0.38 µM
[2]
  solubility at 2 h: 0.037 mg/mL (≈ 108 µM)
[3]
  microsomal CLint at 1 µM: 4.2 µL/min/mg
cells
  IC50: 17 µM

## Nc1c(C(=O)c2cc3ccccc3[nH]2)cnn1-c1cc(O)ccc1Cl
[4]
  IC50: 0.028 µM
[1]
  IC50: 0.36 µM
[2]
  solubility at 2 h: 0.02 mg/mL (≈ 56.7 µM)
[3]
  microsomal CLint at 1 µM: 15 µL/min/mg
cells
  IC50: 2.6 µM

## Cc1nc2cc(-n3ncc(C(=O)c4cc5ccc(CN6CCC(F)(F)CC6)cc5[nH]4)c3N)ccc2[nH]1
[4]
  IC50: 0.28 µM
[1]
  IC50: 0.006 µM
[3]
  microsomal CLint at 1 µM: 14 µL/min/mg
[8]
  IC50: 8.6 µM
hERG (KCNH2)
  inhibition at 10 µM: 58%
[9]
  bioavailability: 5%

## Nc1c(C(=O)c2cc3ccccc3o2)cnn1-c1cc(O)ccc1Cl
[4]
  IC50: 0.17 µM
[1]
  IC50: 3.3 µM
cells
  IC50: 8.2 µM

## Nc1c(C(=O)c2ccc3ncccc3c2)cnn1-c1cc(O)ccc1Cl
[4]
  IC50: 1.6 µM
[1]
  IC50: 8.9 µM
cells
  IC50: 9.3 µM

## Cc1ccc2cc(C(=O)c3cnn(-c4ccc5nc(C)[nH]c5c4)c3N)[nH]c2c1
[4]
  IC50: 0.37 µM
[3]
  microsomal CLint at 1 µM: 140 µL/min/mg
[8]
  IC50: 6.9 µM
hERG (KCNH2)
  inhibition at 10 µM: 64%
cells
  IC50: 9.7 µM

## Cc1nc2ccc(-n3ncc(C(=O)c4cc5cc(CN6CCOCC6)ccc5[nH]4)c3N)cc2[nH]1
[4]
  IC50: 0.21 µM
[1]
  IC50: 0.017 µM
[3]
  microsomal CLint at 1 µM: 15 µL/min/mg
[8]
  IC50: > 10 µM
hERG (KCNH2)
  inhibition at 10 µM: 7%
cells
  IC50: 8.9 µM

## Nc1c(C(=O)c2cc3ccccc3[nH]2)cnn1-c1ccccc1Cl
[4]
  IC50: 0.41 µM
[1]
  IC50: 2.9 µM
cells
  IC50: 2.7 µM

## Nc1c(C(=O)c2cc3ccccc3[nH]2)cnn1-c1ccc2[nH]c(=O)[nH]c2c1
[10]
  IC50: > 50 µM
[4]
  IC50: 2.7 µM
[17]
  IC50: > 50 µM
[18]
  IC50: > 50 µM
